What follows are compounds tested against T1, human H3 receptors (Homo sapiens, UniProt Q9Y5N1) (assay: cAMP quantification assay for human H3 receptor testing). Settings: CHO-K1 cells expressing human H3 receptors; inhibition of agonist-induced decrease of cAMP; 100 nM histamine, 10 μM forskolin; read-out: Potency range (IC50 values).
T1 construct: host or cells: CHO-K1
Format: cell-based
Outline: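 CHO-K1 cells expressing human H3 (10,000/well) were preincubated 30 min at 37 °C with compound in PBS containing 1 mM IBMX and 0.03% BSA. They were then challenged 30 min with agonist solution (100 nM histamine plus 10 μM forskolin). cAMP was quantified by enzyme-complementation luminescence, with 8 concentrations in triplicate at 1% DMSO.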

T1 sequence (Q9Y5N1 whole entry): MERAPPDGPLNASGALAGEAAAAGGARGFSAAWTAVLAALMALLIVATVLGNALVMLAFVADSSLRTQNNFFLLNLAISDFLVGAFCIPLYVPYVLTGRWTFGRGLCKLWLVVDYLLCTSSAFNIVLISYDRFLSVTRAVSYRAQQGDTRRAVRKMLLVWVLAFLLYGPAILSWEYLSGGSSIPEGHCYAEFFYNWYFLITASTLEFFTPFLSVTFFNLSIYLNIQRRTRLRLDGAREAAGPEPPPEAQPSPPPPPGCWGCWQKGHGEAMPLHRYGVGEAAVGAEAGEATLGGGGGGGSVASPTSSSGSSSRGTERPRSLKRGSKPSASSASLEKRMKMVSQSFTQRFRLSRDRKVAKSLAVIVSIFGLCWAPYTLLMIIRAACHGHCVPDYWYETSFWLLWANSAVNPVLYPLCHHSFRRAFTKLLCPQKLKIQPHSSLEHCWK

`O=C(N1CCCN(C2CCC2)CC1)N1CC(Oc2ccc(Cn3cccn3)cn2)C1` [Example 17, 1-cyclobutyl-4-[(3-{[5-(1H-pyrazol-1-ylmethyl)pyridin-2-yl]oxy}azetidin-1-yl)carbonyl]-1,4-diazepane] and `O=C(N1CCCN(C2CCC2)CC1)N1CC(Oc2ccc(Br)cn2)C1` [Example 22, 1-({3-[(5-bromopyridin-2-yl)oxy]azetidin-1-yl}carbonyl)-4-cyclobutyl-1,4-diazepane] cannot be ordered by IC50: under 100 nM for the first, under 100 nM for the second.

`O=C(N1CCCN(C2CCC2)CC1)N1CC(OCc2ccc(F)cc2)C1` [Example 95, 1-cyclobutyl-4-({3-[(4-fluorobenzyl)oxy]azetidin-1-yl}carbonyl)-1,4-diazepane] and `N#Cc1ccc(COC2CN(C(=O)N3CCCN(C4CCC4)CC3)C2)cc1` [Example 98, 4-[({1-[(4-cyclobutyl-1,4-diazepan-1-yl)carbonyl]azetidin-3-yl}oxy)methyl]benzonitrile] cannot be ordered by IC50: under 100 nM for the first, under 100 nM for the second.

`Nc1cc(OC2CN(C(=O)N3CCCN(C4CCC4)CC3)C2)ccn1` [Example 57, 4-({1-[(4-cyclobutyl-1,4-diazepan-1-yl)carbonyl]azetidin-3-yl}oxy)pyridin-2-amine] and `NC(=O)c1cc(OC2CN(C(=O)N3CCCN(C4CCC4)CC3)C2)ccn1` [Example 72, 4-({1-[(4-cyclobutyl-1,4-diazepan-1-yl)carbonyl]azetidin-3-yl}oxy)pyridine-2-carboxamide] cannot be ordered by IC50: under 100 nM for the first, under 100 nM for the second.

`CS(=O)(=O)c1ccc(OC2CN(C(=O)N3CCCN(C4CCC4)CC3)C2)cc1` [Example 163, 1-cyclobutyl-4-({3-[4-(methylsulfonyl)phenoxy]azetidin-1-yl}carbonyl)-1,4-diazepane] and `CC(C)(O)c1ccc(OC2CN(C(=O)N3CCCN(C4CCC4)CC3)C2)cn1` [Example 118, 2-[5-({1-[(4-cyclobutyl-1,4-diazepan-1-yl)carbonyl]azetidin-3-yl}oxy)pyridin-2-yl]propan-2-ol] cannot be ordered by IC50: under 100 nM for the first, under 100 nM for the second.

`O=C(N1CCCN(C2CCC2)CC1)N1CC(Oc2ccnc3ccccc23)C1` [Example 68, 4-({1-[(4-cyclobutyl-1,4-diazepan-1-yl)carbonyl]azetidin-3-yl}oxy)quinoline] and `N#Cc1ccccc1OC1CN(C(=O)N2CCCN(C3CCC3)CC2)C1` [Example 31, 2-({1-[(4-cyclobutyl-1,4-diazepan-1-yl)carbonyl]azetidin-3-yl}oxy)benzonitrile] cannot be ordered by IC50: under 100 nM for the first, under 100 nM for the second.

Compared with `O=C(C1CN(C(=O)N2CCCN(C3CCC3)CC2)C1)N1CCC(F)(F)CC1` [Example 130, 1-cyclobutyl-4-({3-[(4,4-difluoropiperidin-1-yl)carbonyl]azetidin-1-yl}carbonyl)-1,4-diazepane], `CNC(=O)C1CN(C(=O)N2CCCN(C3CCC3)CC2)C1` [Example 133, 1-[(4-cyclobutyl-1,4-diazepan-1-yl)carbonyl]-N-methylazetidine-3-carboxamide] is higher in IC50: under 100 nM for the first, 100 to 500 nM for the second.

`COc1nccc(OC2CN(C(=O)N3CCCN(C4CCC4)CC3)C2)n1` [Example 52, 1-cyclobutyl-4-({3-[(2-methoxypyrimidin-4-yl)oxy]azetidin-1-yl}carbonyl)-1,4-diazepane] and `COc1cncc(OC2CN(C(=O)N3CCCN(C4CCC4)CC3)C2)n1` [Example 66, 1-cyclobutyl-4-({3-[(6-methoxypyrazin-2-yl)oxy]azetidin-1-yl}carbonyl)-1,4-diazepane] cannot be ordered by IC50: under 100 nM for the first, under 100 nM for the second.

`O=C(N1CCCN(C2CCC2)CC1)N1CC(Oc2cccn3ccnc23)C1` [Example 70, 8-({1-[(4-cyclobutyl-1,4-diazepan-1-yl)carbonyl]azetidin-3-yl}oxy)imidazo[1,2-a]pyridine] and `Cc1cc(Cl)ccc1OC1CN(C(=O)N2CCCN(C3CCC3)CC2)C1` [Example 25, 1-{[3-(4-chloro-2-methylphenoxy)azetidin-1-yl]carbonyl}-4-cyclobutyl-1,4-diazepane] cannot be ordered by IC50: under 100 nM for the first, under 100 nM for the second.

`Cc1ccc(COC2CN(C(=O)N3CCCN(C4CCC4)CC3)C2)cn1` [Example 164, 1-cyclobutyl-4-({3-[(6-methylpyridin-3-yl)methoxy]azetidin-1-yl}carbonyl)-1,4-diazepane] and `Cc1ccc(C(=O)NC2CN(C(=O)N3CCCN(C4CCC4)CC3)C2)cn1` [Example 139, N-{1-[(4-cyclobutyl-1,4-diazepan-1-yl)carbonyl]azetidin-3-yl}-6-methylpyridine-3-carboxamide] cannot be ordered by IC50: under 100 nM for the first, under 100 nM for the second.

`COc1cnc(OC2CN(C(=O)N3CCCN(C4CCC4)CC3)C2)nc1` [Example 120, 1-cyclobutyl-4-({3-[(5-methoxypyrimidin-2-yl)oxy]azetidin-1-yl}carbonyl)-1,4-diazepane] and `O=C(N1CCCN(C2CCC2)CC1)N1CC(Oc2ccc(Cl)nc2)C1` [Example 46, 1-({3-[(6-chloropyridin-3-yl)oxy]azetidin-1-yl}carbonyl)-4-cyclobutyl-1,4-diazepane] cannot be ordered by IC50: under 100 nM for the first, under 100 nM for the second.

`CNC(=O)c1ccc(OC2CN(C(=O)N3CCCN(C4CCC4)CC3)C2)cc1F` [Example 47, 4-({1-[(4-cyclobutyl-1,4-diazepan-1-yl)carbonyl]azetidin-3-yl}oxy)-2-fluoro-N-methylbenzamide] and `CNC(=O)c1ccc(OC2CN(C(=O)N3CCCN(C4CCC4)CC3)C2)cn1` [Example 5, 5-({1-[(4-cyclobutyl-1,4-diazepan-1-yl)carbonyl]azetidin-3-yl}oxy)-N-methylpyridine-2-carboxamide] cannot be ordered by IC50: under 100 nM for the first, under 100 nM for the second.

`Cn1cc(-c2ccc(OC3CN(C(=O)N4CCCN(C5CCC5)CC4)C3)cc2)cn1` [Example 149, 1-cyclobutyl-4-({3-[4-(1-methyl-1H-pyrazol-4-yl)phenoxy]azetidin-1-yl}carbonyl)-1,4-diazepane] and `Cc1ccc2cc(OC3CN(C(=O)N4CCCN(C5CCC5)CC4)C3)ccc2n1` [Example 93, 6-({1-[(4-cyclobutyl-1,4-diazepan-1-yl)carbonyl]azetidin-3-yl}oxy)-2-methylquinoline] cannot be ordered by IC50: under 100 nM for the first, under 100 nM for the second.

`O=C(N1CCCN(C2CCC2)CC1)N1CC(O)C1` [Example 1, 1-[(4-cyclobutyl-1,4-diazepan-1-yl)carbonyl]azetidin-3-ol] and `COC1CN(C(=O)N2CCCN(C3CCC3)CC2)C1` [Example 96, 1-cyclobutyl-4-[(3-methoxyazetidin-1-yl)carbonyl]-1,4-diazepane] cannot be ordered by IC50: under 100 nM for the first, under 100 nM for the second.

Compared with `CC(C)(O)c1ccc(OC2CN(C(=O)N3CCCN(C4CCCC4)CC3)C2)cn1` [Example 159, 2-[5-({1-[(4-cyclopentyl-1,4-diazepan-1-yl)carbonyl]azetidin-3-yl}oxy)pyridin-2-yl]propan-2-ol], `CC(=O)c1ccc(OC2CN(C(=O)N3CCCN(C4CCC4)CC3)C2)cn1` [Example 119, 1-[5-({1-[(4-cyclobutyl-1,4-diazepan-1-yl)carbonyl]azetidin-3-yl}oxy)pyridin-2-yl]ethanone] is lower in IC50: 500 to 5000 nM for the first, under 100 nM for the second.

`CNC(=O)c1ccc(OC2CN(C(=O)N3CCCN(C4CCC4)CC3)C2)c(C)c1` [Example 34, 4-({1-[(4-cyclobutyl-1,4-diazepan-1-yl)carbonyl]azetidin-3-yl}oxy)-N,3-dimethylbenzamide] and `NC(=O)c1ccc(OC2CN(C(=O)N3CCCN(C4CCC4)CC3)C2)cn1` [Example 4, 5-({1-[(4-cyclobutyl-1,4-diazepan-1-yl)carbonyl]azetidin-3-yl}oxy)pyridine-2-carboxamide] cannot be ordered by IC50: under 100 nM for the first, under 100 nM for the second.

`CNC(=O)c1ccc(NC2CN(C(=O)N3CCCN(C4CCC4)CC3)C2)cn1` [Example 110, 5-({1-[(4-cyclobutyl-1,4-diazepan-1-yl)carbonyl]azetidin-3-yl}amino)-N-methylpyridine-2-carboxamide] and `COC(=O)C1CN(C(=O)N2CCCN(C3CCC3)CC2)C1` [Example 122, methyl 1-[(4-cyclobutyl-1,4-diazepan-1-yl)carbonyl]azetidine-3-carboxylate] cannot be ordered by IC50: under 100 nM for the first, under 100 nM for the second.

`COCC1CN(C(=O)N2CCCN(C3CCC3)CC2)C1` [Example 148, 1-cyclobutyl-4-{[3-(methoxymethyl)azetidin-1-yl]carbonyl}-1,4-diazepane] and `C#CCOC1CN(C(=O)N2CCCN(C3CCC3)CC2)C1` [Example 99, 1-cyclobutyl-4-{[3-(prop-2-yn-1-yloxy)azetidin-1-yl]carbonyl}-1,4-diazepane] cannot be ordered by IC50: under 100 nM for the first, under 100 nM for the second.

`CNC(=O)c1ccc(O[C@H]2C[C@@H](C(=O)N3CCCN(C4CCC4)CC3)C2)nc1` [Example 102, 6-({cis-3-[(4-cyclobutyl-1,4-diazepan-1-yl)carbonyl]cyclobutyl}oxy)-N-methylpyridine-3-carboxamide] and `O=C(N1CCCN(C2CCC2)CC1)N1CC(Oc2ccc(C(F)(F)F)cn2)C1` [Example 11, 1-cyclobutyl-4-[(3-{[5-(trifluoromethyl)pyridin-2-yl]oxy}azetidin-1-yl)carbonyl]-1,4-diazepane] cannot be ordered by IC50: under 100 nM for the first, under 100 nM for the second.

`O=C1CC(C(=O)N2CCCN(C3CCC3)CC2)C1` [Example 100, 3-[(4-cyclobutyl-1,4-diazepan-1-yl)carbonyl]cyclobutanone] and `CN(C(=O)C1CN(C(=O)N2CCCN(C3CCC3)CC2)C1)c1ccc(Cl)cc1` [Example 146, N-(4-chlorophenyl)-1-[(4-cyclobutyl-1,4-diazepan-1-yl)carbonyl]-N-methylazetidine-3-carboxamide] cannot be ordered by IC50: under 100 nM for the first, under 100 nM for the second.

`O=C(CC1CC1)N1CCc2nc(OC3CN(C(=O)N4CCCN(C5CCC5)CC4)C3)ccc2C1` [Example 84, 2-({1-[(4-cyclobutyl-1,4-diazepan-1-yl)carbonyl]azetidin-3-yl}oxy)-6-(cyclopropylacetyl)-5,6,7,8-tetrahydro-1,6-naphthyridine] and `CC(C)N1CCCN(C(=O)N2CC(Oc3ccc(C(C)(C)O)nc3)C2)CC1` [Example 158, 2-{5-[(1-{[4-(1-methylethyl)-1,4-diazepan-1-yl]carbonyl}azetidin-3-yl)oxy]pyridin-2-yl}propan-2-ol] cannot be ordered by IC50: under 100 nM for the first, under 100 nM for the second.

— patent US8691804B2 (Evotec AG, priority 2008, dated 2014)
